In patent US20010053351A1, “Inhibition of GSK-3 beta” (priority 1999, published 2001):

Tests used:
GSK-3 = details: cited from earlier work
GSK-3α = GSK-3α (Homo sapiens, UniProt P49840); details: significant effects at concentrations of VPA similar to those attained clinically; cited from earlier work
GSK-3β = GSK-3β (Homo sapiens, UniProt P49841); details: significant effects at concentrations of VPA similar to those attained clinically; cited from earlier work
GSK-3β−/− cells = assay: Cell death / viability (trypan blue) of GSK-3β-/- embryonic fibroblast cell lines; type: cell-based, mouse; details: anisomycin 0-5 μg/ml, sorbitol 0-1000 mM, daunorubicin 0-1000 ng/ml
Source text: To probe the mechanism by which GSK-3β impacted TNF cytotoxicity, immortalized mouse embryonic fibroblast (MEF) cell lines from two wild-type ([…]), two GSK-3β heterozygous (+/−1 and +/−2) and two GSK-3β homozygous mutant (−/−1 and −/−2) embryos were derived from embryos.
We next examined the sensitivity of the lines to TNF-induced cell death. […] As a reference, TNF receptor-associated factor 2 (TRAF2) homozygous mutant MEFs were used in the same assay.
Viability is expressed normalized to untreated controls. Independently derived GSK-3β^+/+ EF cell clones are indicated by +/+1 and +/+2; GSK-3β^+/− by +/−1 and +/−2; and GSK-3β^−/− by −/−1, and −/−2. […] Cells were uniformly treated with cycloheximide (CHX, 0.25 μg/ml). […] (C) Sensitivity of GSK-3β^−/− EF cells to various apoptotic stimuli. EF cells were stimulated with anisomycin (0-5 μg/ml), sorbitol (0-1000 mM), daunorubicin (0-1000 ng/ml), and γ-irradiation (0-50 Gy). All experiments were repeated at least three times, and the data (as a percentage) is shown as the mean ± standard error.

Chain of GSK-3α (P49840 whole entry, species assumed): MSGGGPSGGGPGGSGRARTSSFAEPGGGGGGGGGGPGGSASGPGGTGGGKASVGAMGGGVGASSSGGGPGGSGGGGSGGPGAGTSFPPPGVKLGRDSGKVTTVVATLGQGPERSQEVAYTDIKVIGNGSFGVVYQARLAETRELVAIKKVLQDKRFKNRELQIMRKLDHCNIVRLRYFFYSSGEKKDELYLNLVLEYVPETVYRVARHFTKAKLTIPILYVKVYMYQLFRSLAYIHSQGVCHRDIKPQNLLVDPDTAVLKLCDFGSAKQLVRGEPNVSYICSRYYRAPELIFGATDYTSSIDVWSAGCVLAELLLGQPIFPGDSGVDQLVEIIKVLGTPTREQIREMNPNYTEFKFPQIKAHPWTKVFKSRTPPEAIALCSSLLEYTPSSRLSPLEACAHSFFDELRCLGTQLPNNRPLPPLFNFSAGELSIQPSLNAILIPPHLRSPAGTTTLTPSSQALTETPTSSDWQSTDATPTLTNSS
Chain of GSK-3β (P49841 whole entry): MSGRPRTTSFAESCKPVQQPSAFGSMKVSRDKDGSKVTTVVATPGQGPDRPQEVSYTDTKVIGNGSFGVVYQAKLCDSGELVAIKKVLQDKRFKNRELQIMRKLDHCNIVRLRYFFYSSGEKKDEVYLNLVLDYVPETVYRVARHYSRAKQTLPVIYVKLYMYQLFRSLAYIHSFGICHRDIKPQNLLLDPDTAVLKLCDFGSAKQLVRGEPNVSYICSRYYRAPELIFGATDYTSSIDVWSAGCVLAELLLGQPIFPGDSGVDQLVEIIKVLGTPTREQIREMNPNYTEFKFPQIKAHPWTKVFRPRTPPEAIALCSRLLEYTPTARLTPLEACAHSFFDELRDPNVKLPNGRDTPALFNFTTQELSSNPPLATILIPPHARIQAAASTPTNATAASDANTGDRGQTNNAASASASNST

Compound | decrease of GSK-3 activity (GSK-3) | susceptibility of GSK-3β-deficient cells to apoptotic stimuli (GSK-3β−/− cells) | further results
CC(C)NCC(O)c1ccc(O)c(O)c1 (stereo not shown) [Isoproterenol] | approximately 50% | – | –
CCCC(CCC)C(=O)O [VPA, Valproic acid] | – | – | inhibition of GSK-3α (GSK-3α): inhibits; inhibition of GSK-3β (GSK-3β): inhibits
COc1ccc(C[C@H]2NC[C@H](O)[C@H]2OC(C)=O)cc1 [anisomycin] | – | normal susceptibility | –
COc1cccc2c1C(=O)c1c(O)c3c(c(O)c1C2=O)C[C@@](O)(C(C)=O)C[C@@H]3O[C@H]1C[C@H](N)[C@H](O)[C@H](C)O1 [daunorubicin] | – | normal susceptibility | –
OC[C@@H](O)[C@@H](O)[C@H](O)[C@@H](O)CO [sorbitol] | – | normal susceptibility | –
insulin | approximately 50% | – | –
